Our source for the SUV and Drug uptake values is ChEMBL document CHEMBL1759848, “[11C]sorafenib: radiosynthesis and preliminary PET study of brain uptake in P-gp/Bcrp knockout mice” (Bioorg Med Chem Lett, 2011).

Holding throughout (assay type): ADME, tissue-based
The subject of data set [1] is Brain. The experiment in a line: Drug uptake in wild-type mouse brain after 60 mins. The conditions noted are these: in vivo, 1 h.
Data set [2] relates to Brain. In words: Drug uptake in P-gp/Bcrp knockout mouse brain after 60 mins. The conditions noted are these: in vivo, 1 h.
In data set [3] the test system is Brain. The experiment in a line: Drug uptake in P-gp/Bcrp knockout mouse brain by Positron emission tomography. As to conditions: in vivo; call rule not given here.
Data set [4] relates to Brain. In words: Drug uptake in wild-type mouse brain by Positron emission tomography. As to conditions: in vivo.

For `CNC(=O)c1cc(Oc2ccc(N[11C](=O)Nc3ccc(Cl)c(C(F)(F)F)c3)cc2)ccn1` [[11C]-SORAFENIB], the SUV in data set [1] is reported as 18.83; in data set [2], 6.72. The Drug uptake result in data set [3] and in data set [4] was “Active” throughout.
